The text below walks through data of PubChem BioAssay AID1259407 (Chemical Carcinogenesis Research Information System (CCRIS), 2018).

Calls of active or inactive are those of the source. How the calls were made is not given here.

For the series, the system named is CCRIS mutagenicity, Ames/micronucleus/aberration tests. As to the kind of experiment: CCRIS mutagenicity studies.
[1] abbreviates: Test System: AMES SALMONELLA TYPHIMURIUM, Strain/Indicator: TA98, Metabolic Activation: NONE, Method: PREINCUBATION
Setting [2] is: Test System: AMES SALMONELLA TYPHIMURIUM, Strain/Indicator: TA100, Metabolic Activation: NONE, Method: PREINCUBATION
Where [3] appears, read: Test System: AMES SALMONELLA TYPHIMURIUM, Strain/Indicator: TA1535, Metabolic Activation: NONE, Method: PREINCUBATION
The mark [4] stands for this setting: Test System: AMES SALMONELLA TYPHIMURIUM, Strain/Indicator: TA1537, Metabolic Activation: NONE, Method: PREINCUBATION
Setting [5] is: Test System: AMES SALMONELLA TYPHIMURIUM, Strain/Indicator: TA98, Metabolic Activation: NONE, Method: STANDARD PLATE.
[6] abbreviates: Test System: AMES SALMONELLA TYPHIMURIUM, Strain/Indicator: TA100, Metabolic Activation: NONE, Method: STANDARD PLATE.
Where [7] appears, read: Test System: AMES SALMONELLA TYPHIMURIUM, Strain/Indicator: TA100, Metabolic Activation: S-9, Method: STANDARD PLATE.

Consider `CC(=O)OC1CC(C)OC(C)O1` (configuration not stated), for which the mutagenic call runs as follows: (Test System: AMES SALMONELLA TYPHIMURIUM, Strain/Indicator: TA98, Metabolic Activation: HAMSTER, LIVER, S-9, AROCLOR 1254, Method: PREINCUBATION) “inactive; negative”; under setting [1], “inactive; negative”; (Test System: AMES SALMONELLA TYPHIMURIUM, Strain/Indicator: TA98, Metabolic Activation: RAT, LIVER, S-9, AROCLOR 1254, Method: PREINCUBATION) “inactive; negative”; (Test System: AMES SALMONELLA TYPHIMURIUM, Strain/Indicator: TA100, Metabolic Activation: HAMSTER, LIVER, S-9, AROCLOR 1254, Method: PREINCUBATION) “active; positive”; under setting [2], “inactive; negative”; (Test System: AMES SALMONELLA TYPHIMURIUM, Strain/Indicator: TA100, Metabolic Activation: RAT, LIVER, S-9, AROCLOR 1254, Method: PREINCUBATION) “active; positive”. In addition, the mutagenic call is, setting by setting: (Test System: AMES SALMONELLA TYPHIMURIUM, Strain/Indicator: TA1535, Metabolic Activation: HAMSTER, LIVER, S-9, AROCLOR 1254, Method: PREINCUBATION) “inactive; negative”; under setting [3], “inactive; negative”; (Test System: AMES SALMONELLA TYPHIMURIUM, Strain/Indicator: TA1535, Metabolic Activation: RAT, LIVER, S-9, AROCLOR 1254, Method: PREINCUBATION) “inactive; negative”; (Test System: AMES SALMONELLA TYPHIMURIUM, Strain/Indicator: TA1537, Metabolic Activation: HAMSTER, LIVER, S-9, AROCLOR 1254, Method: PREINCUBATION) “inactive; negative”; under setting [4], “inactive; negative”; (Test System: AMES SALMONELLA TYPHIMURIUM, Strain/Indicator: TA1537, Metabolic Activation: RAT, LIVER, S-9, AROCLOR 1254, Method: PREINCUBATION) “inactive; negative”.

As for `COP(=S)(OC)Oc1ccc(SC)c(C)c1`, the mutagenic call (End Point: IN VITRO CHROMOSOMAL ABERRATIONS, Test System: HUMAN PERIPHERAL LYMPHOCYTES, Metabolic Activation: NONE) is “active; positive (structural changes)”; the mutagenic call (End Point: In vitro chromosomal aberration, Test System: Chinese hamster ovary (CHO) cells, Metabolic Activation: None) was “inactive; negative”; the mutagenic call (End Point: In vitro chromosomal aberration, Test System: Chinese hamster ovary (CHO) cells, Metabolic Activation: Rat, Liver, S-9) is “inactive; negative”; the mutagenic call (Test System: UDS Rat hepatocytes, Strain/Indicator: Thymidine incorporation, Metabolic Activation: None, Method: Autoradiography) was “active; positive”.

Regarding `C=C(C)C1C=C2C(COC(=O)CCCCCCCCCCCCCCCCC)=CC=C2C(C)=CC1` (configuration not stated), the mutagenic call was “inactive; negative” under setting [5]; “inactive; negative” (Test System: AMES SALMONELLA TYPHIMURIUM, Strain/Indicator: TA98, Metabolic Activation: RAT, LIVER, S-9, AROCLOR 1254, Method: STANDARD PLATE); “active; positive” under setting [6]; “active; positive” (Test System: AMES SALMONELLA TYPHIMURIUM, Strain/Indicator: TA100, Metabolic Activation: RAT, LIVER, S-9, AROCLOR 1254, Method: STANDARD PLATE).

`c1ccc(CSSCc2ccccc2)cc1`: the mutagenic call reads like this: (Test System: AMES SALMONELLA TYPHIMURIUM, Strain/Indicator: TA97, Metabolic Activation: NONE, Method: STANDARD PLATE) “inactive; negative”; (Test System: AMES SALMONELLA TYPHIMURIUM, Strain/Indicator: TA97, Metabolic Activation: S-9, Method: STANDARD PLATE) “inactive; negative”; under setting [5], “inactive; negative”; (Test System: AMES SALMONELLA TYPHIMURIUM, Strain/Indicator: TA98, Metabolic Activation: S-9, Method: STANDARD PLATE) “inactive; negative”; under setting [6], “inactive; negative”; under setting [7], “inactive; negative”. Moreover, the mutagenic call (Test System: AMES SALMONELLA TYPHIMURIUM, Strain/Indicator: TA102, Metabolic Activation: NONE, Method: STANDARD PLATE) is “active; positive” and the mutagenic call (Test System: AMES SALMONELLA TYPHIMURIUM, Strain/Indicator: TA102, Metabolic Activation: S-9, Method: STANDARD PLATE) is “active; positive”.

Turning to `OCC12OOC1(CO)c1ccccc1O2` (configuration not stated), under setting [2], the mutagenic call was “inactive; negative”.

As to `CCCCOC(=O)c1ccccc1C(=O)OCCCC`, the mutagenic call is “inactive; negative” (Test System: AMES SALMONELLA TYPHIMURIUM, Strain/Indicator: TA98, Metabolic Activation: HAMSTER, LIVER, S-9, AROCLOR 1254 (10%), Method: PREINCUBATION); “inactive; negative” under setting [1]; “inactive; negative” (Test System: AMES SALMONELLA TYPHIMURIUM, Strain/Indicator: TA98, Metabolic Activation: RAT, LIVER, S-9, AROCLOR 1254 (10%), Method: PREINCUBATION); “inactive; negative” (Test System: AMES SALMONELLA TYPHIMURIUM, Strain/Indicator: TA100, Metabolic Activation: HAMSTER, LIVER, S-9, AROCLOR 1254 (10%), Method: PREINCUBATION); “inactive; negative” under setting [2]; “active; positive” under setting [6]. Further, the mutagenic call was “inactive; negative” (Test System: AMES SALMONELLA TYPHIMURIUM, Strain/Indicator: TA100, Metabolic Activation: RAT, LIVER, S-9, AROCLOR 1254 (10%), Method: PREINCUBATION); “inactive; negative” under setting [7]; “inactive; negative” (Test System: AMES SALMONELLA TYPHIMURIUM, Strain/Indicator: TA1535, Metabolic Activation: HAMSTER, LIVER, S-9, AROCLOR 1254 (10%), Method: PREINCUBATION); “inactive; negative” under setting [3]; “inactive; negative” (Test System: AMES SALMONELLA TYPHIMURIUM, Strain/Indicator: TA1535, Metabolic Activation: NONE, Method: STANDARD PLATE); “inactive; negative” (Test System: AMES SALMONELLA TYPHIMURIUM, Strain/Indicator: TA1535, Metabolic Activation: RAT, LIVER, S-9, AROCLOR 1254 (10%), Method: PREINCUBATION). In addition, the mutagenic call is, setting by setting: (Test System: AMES SALMONELLA TYPHIMURIUM, Strain/Indicator: TA1535, Metabolic Activation: S-9, Method: STANDARD PLATE) “inactive; negative”; (Test System: AMES SALMONELLA TYPHIMURIUM, Strain/Indicator: TA1537, Metabolic Activation: HAMSTER, LIVER, S-9, AROCLOR 1254 (10%), Method: PREINCUBATION) “inactive; negative”; under setting [4], “inactive; negative”; (Test System: AMES SALMONELLA TYPHIMURIUM, Strain/Indicator: TA1537, Metabolic Activation: RAT, LIVER, S-9, AROCLOR 1254 (10%), Method: PREINCUBATION) “inactive; negative”; (Test System: MOUSE LYMPHOMA, Strain/Indicator: L5178Y (TK+/TK-), Metabolic Activation: NONE, Method: SUSPENSION/PLATE) “inactive; negative”; (Test System: MOUSE LYMPHOMA, Strain/Indicator: L5178Y (TK+/TK-), Metabolic Activation: RAT LIVER S-9, Method: SUSPENSION/PLATE) “active; positive”.

On to `C/C=C1/C[C@@H](C)[C@@](C)(O)C(=O)OCC2=CCN3CC[C@@H](OC1=O)[C@@H]23`, for which the mutagenic call is, setting by setting: (Test System: AMES SALMONELLA TYPHIMURIUM, Strain/Indicator: TA100, Metabolic Activation: HAMSTER, LIVER, S-9, PCB, Method: PREINCUBATION) “inactive; negative”; (Test System: AMES SALMONELLA TYPHIMURIUM, Strain/Indicator: TA100, Metabolic Activation: RAT, LIVER, S-9, PCB, Method: PREINCUBATION) “inactive; negative”; (Test System: AMES SALMONELLA TYPHIMURIUM, Strain/Indicator: TA100, Metabolic Activation: RAT, LIVER, S-9, SODIUM PHENOBARBITAL AND BETA-NAPHTHOFLAVONE, Method: PREINCUBATION) “inactive; negative”; (Test System: UDS RAT HEPATOCYTES, Strain/Indicator: THY INCORP, Metabolic Activation: NONE, Method: AUTORADIOGRAPHY) “active; positive”.

Take `O=NN(CCc1c[nH]c2ccccc12)C1OC[C@@H](O)[C@H](O)[C@H]1O` (some centres not stated): the mutagenic call (Test System: AMES SALMONELLA TYPHIMURIUM, Strain/Indicator: TA100, Metabolic Activation: NONE, Method: LIQUID INCUBATION) is “active; positive”.
